Key:
[1] = Food effect on pharmacokinetics, 200 mg as 25 mg tablets, fed vs fasted, healthy volunteers; format: in vivo, human
Source text: This example describes a clinical study for establishing, in healthy volunteers, the effect of a high fat, high caloric meal on the PK profile of Compound I, as compared to administration of the drug in the fasted state. The study also was intended to determine the safety and tolerability after a single oral dose of Compound I in the fed and fasted state in healthy volunteers. The measurements of PK, PD, and other clinical parameters were done as described in Example 1 above.
This study was an open-label, randomized, two-period cross-over study in healthy volunteers aged 18-55 years. Subjects were screened up to 28 days before the first treatment period. Subjects were admitted to the clinical site on Day −1 (the day before dosing) of Period 1. Approximately half of the subjects randomly received a single dose of Compound I on Day 1 of the first treatment period after the ingestion of a high fat, high caloric breakfast, and the remainder were dosed in the fasted state. Any subject with a predose resting HR ≥95 beats per minute (bpm) was considered ineligible and was not treated. Any subjects with an acute gastrointestinal disorder which could impact drug/food absorption (e.g., vomiting, diarrhea) were rescheduled. Subjects were confined to the clinic until Day 4, and discharged after the 72-hour postdose PK and laboratory samples and vital signs were obtained. After a washout between dosing from 7 to 10 days (or, after consultation with the Investigator, up to 21 days after initial dosing if the subject was unable to attend within the 7 to 10-day window), the subject was admitted for Period 2. The sequence of fed/fasted versus fasted/fed periods was randomized. Subjects returned after the second treatment period for a safety follow-up visit on Day 7 (+1 day).
In both treatment periods, Compound I was administered with 240 mL of water. In the fasted state, the subjects fasted for 10 hours before and for 4 hours after the administration of Compound I. Water could have been ingested up to 1 hour before and after 1 hour post dosing. In the fed state, the subjects fasted for 10 hours before and for 4 hours after the ingestion of the meal, but could have ingested water up to 1 hour before and 1 hour after dosing. In the fed state, the subjects started ingesting the high fat, high caloric meal within 30 minutes prior to Compound I administration and finished the meal within 30 minutes. The meal contained approximately 800 to 1000 calories with about 50% of the calories from fat. The meal consisted of approximately 150 calories from protein, 250 calories from carbohydrate, and 500-600 calories from fat. An example of the meal was a breakfast consisting of two eggs fried in butter, two strips of bacon, two slices of buttered toast, 4 ounces of hash brown potatoes, and 8 ounces of whole milk.
Each subject received two oral doses of 200 mg of Compound I formulated as 25 mg tablets (8 tablets) in a randomized, cross-over fashion, once in the fasted state and the other time after the ingestion of a high fat, high caloric breakfast. There was a washout of between 7 and 21 days between the administrations of the two doses. The Compound I drug substance was a crystalline, free-base, synthetic molecule with a molecular weight of 435.4.
Plasma drug concentrations were measured as described in Example 1 above. Blood samples to measure Compound I plasma concentration were collected at various time points, including on Day 1 predose (1 hour prior to dosing) and at 1 (±5 min), 2 (±5 min), 3 (±5 min), 4 (═10 min), 5 (±10 min), 6 (±10 min), 9 (±20 min), 12 (±20 min), 18 (±30 min), 24 (±30 min), 36 (±30 min), 48 (±30 min), and 72 (±30 min) hours postdose on both treatment periods.
To assess the effect of food on the PK of Compound I, the two one-sided t-test procedure was used to construct 90% CI around the geometric mean ratios (fed/fasted) of plasma AUCinf, AUClast, and Cmax. […]

[2] = tested on: patients with stable HFrEF; experiment: TTE pharmacodynamics in MAD cohorts, patients with stable HFrEF; format: in vivo, human; settings: plasma concentration group <2000 ng/mL (n = 30); LS mean difference vs placebo
Protocol: During the study, multiple evaluations were performed that included: serial TTE assessments (11-14 TTEs per patient on Days 1, 2, 3, 4, 7, 9, 10 and 11); PK sampling (PK sample collected concomitantly with every post-randomization echocardiogram); ECGs (on Days 2, 3, 4, 7, 9, 10, 11 and 16); troponin (collected concomitantly with every post-randomization ECG); and safety laboratory assessments. Confined patients underwent continuous telemetry. Holter monitoring was performed in all patients at baseline (Days 1-2) and at the end of double-blind treatment (Days 7-9). Vital signs were collected daily.
PD assessment was done by transthoracic echocardiography as described in Example 1 above. TTE evaluations of LVSV (derived from LVOT-VTI), LVEF, LVFS, SET, and other parameters were PD assessments at predetermined time points. The patients were on bed rest for 10 minutes before the TTEs were obtained. […]
The pharmacodynamic effects of Compound I on echocardiographic markers of cardiac structure and function were analyzed by Compound I plasma concentration groups: <2000 ng/mL (lower concentration group), 2000-3500 ng/ml (medium concentration group) and >3500 ng/ml (higher concentration group) (Table 16) and with PK-PD scatterplots (FIGS. 9A-9C). […]

[3] = 200 mg, subjects who completed both periods (N = 9)
[4] = 200 mg, subjects who completed both fasted and fed periods (N = 9)
[5] = single oral 200 mg, Fasted (N = 10)
[6] = single oral 200 mg, Fed (N = 10)

Cn1cc(S(=O)(=O)[C@@](C)(F)C2CCN(C(=O)Nc3ccon3)CC2)c(C(F)F)n1 [Compound I, (R)-4-(1-((3-(difluoromethyl)-1-methyl-1H-pyrazol-4-yl)sulfonyl)-1-fluoroethyl)-N-(isoxazol-3-yl) piperidine-1-carboxamide]
exposure (Cmax) higher in fed vs fasted state ([1]; 200 mg): ~60% | AUClast, Fasted LSGM ([1]; 200 mg, N = 11): 57400 ng·h/mL | Cmax, Fasted LSGM ([1]; 200 mg, N = 11): 2300 ng/mL | Cmax, Fed LSGM ([1]; 200 mg, N = 11): 3640 ng/mL | AUCinf, Geometric Mean Ratio - Fed/Fasted ([1]; 200 mg, N = 11, 90% CI 130.30-182.67): 154.28 % of Reference | AUClast, Geometric Mean Ratio - Fed/Fasted ([1]; 200 mg, N = 11, 90% CI 131.11-180.92): 154.02 % of Reference | Cmax, Geometric Mean Ratio - Fed/Fasted ([1]; 200 mg, N = 11, 90% CI 137.11-182.33): 158.11 % of Reference | Median (range) Tmax ([1]; 200 mg, fed state): 5.5 h | AUC0-t geometric mean ratio (fed/fasted) [1, 3]: 153.20% | AUCinf geometric mean ratio (fed/fasted) [1, 3]: 153.63% | Cmax geometric mean ratio (fed/fasted) [1, 3]: 156.43% | AUCinf, Geometric Mean Ratio - Fed/Fasted [1, 4]: 153.63 % of Reference | AUClast, Fasted LSGM [1, 4]: 59000 ng·h/mL | AUClast, Geometric Mean Ratio - Fed/Fasted [1, 4]: 153.20 % of Reference | Cmax, Fasted LSGM [1, 4]: 2370 ng/mL | Cmax, Fed LSGM [1, 4]: 3700 ng/mL | Cmax, Geometric Mean Ratio - Fed/Fasted [1, 4]: 156.43 % of Reference | MRT, Mean [1, 5]: 22.55 h | MRT, Median [1, 5]: 23.86 h | T1/2, z, Mean [1, 5]: 14.28 h | AUCinf, Median [1, 6]: 93950 ng·h/mL | AUClast, Geometric Mean [1, 6]: 88400 ng·h/mL | AUClast, Median [1, 6]: 89310 ng·h/mL | Cmax Geometric Mean [1, 6]: 3644 ng/mL | T1/2, z, Geometric Mean [1, 6]: 13.56 h | E/e′ (lateral), mean change from baseline (placebo-corrected) [2]: 0.8

Source: patent US20250325531A1, “TREATMENT OF SYSTOLIC DYSFUNCTION” (MyoKardia, Inc., priority 2024, published 2025)
